Test results from patent US20150099802A1, “SELECTIVE TUMOR TREATMENT” (SUCAMPO AG, priority 2013, published 2015).

Tests used:
Type in all cases: cell-based
[1] = system: Non-transfected colon adenocarcinoma LS174T cells; assay: Growth of non-transfected LS174T colon adenocarcinoma cells (cell counting); settings: 100 nM lubiprostone, fresh every 24 hr; cells counted at 0, 24, 48, 72 and 96 hr; non-transfected cells (low 15-PGDH); FIG. 1A
Procedure: (§1) Approximately half of colon cancers have a low level of NAD^+-linked 15-hydroxyprostaglandin dehydrogenase (NAD^+-15-PGDH). It was tested whether lubiprostone affected the growth of LS174T colon […] cells, which are known to have a low level of 15-PGDH. LS174T cells (ATCC #CL-188) were grown in Eagle's Minimum Essential Medium (ATCC #30-2003) containing 10% Fetal Bovine Serum (ATCC #30-2020) at 37° C. Human PGDH (hPGDH) was expressed in LS174T cells using pCMV6-Entry Vector. Both the human cDNA clone (#RC204160) and the Precision shuttle vector (#PS100001) were from OriGene Technologies, Rockville, Md. LS174T cells were transfected with hPGDH cDNA using Lipofectamine and selected using G418 (200 μg/ml). LS174T cells±hPGDH (+hPGDH or + vector alone, mock) were grown in 35 mm petri dishes (0.5×10^4 cells/dish) in triplicate. Confluent non-transfected cells were plated in 6 well dishes (1×10^4 cells/well) in triplicate. Cultures were grown to 40% confluence and were then treated with either 0.1% EtOH-0.01% DMSO or 100 nM lubiprostone. Media were changed and fresh EtOH-DMSO or lubiprostone was added every 24 hr. Cell growth was monitored by directly counting the cells in a randomly chosen field using a cell cytometer at 0, 24, 48, 72 and 96 hr.

[2] = system: hPGDH-transfected colon adenocarcinoma LS174T cells; assay: Growth of hPGDH-transfected LS174T colon adenocarcinoma cells (cell counting); settings: 100 nM lubiprostone, fresh every 24 hr, cells counted at 0-96 hr, FIG. 1B
Procedure: as §1

[3] = system: Mock-transfected colon adenocarcinoma LS174T cells; assay: Growth of mock-transfected LS174T colon adenocarcinoma cells (cell counting); settings: 100 nM lubiprostone, fresh every 24 hr; cells counted at 0-96 hr; vector-alone (mock) LS174T cells; FIG. 1C
Procedure: as §1

SMILES: CCCCC(F)(F)[C@@]1(O)CC[C@H]2[C@@H](CC(=O)[C@@H]2CCCCCCC(=O)O)O1 [lubiprostone, (−)-7-[(2R,4aR,5R,7aR)-2-(1,1-difluoropentyl)-2-hydroxy-6-oxooctahydrocyclopenta[b]pyran-5-yl]heptanoic acid]
- LS174T cell growth [1]: slowed or stopped
- lubiprostone inhibition of cell growth after transfection with 15-OH PGDH [2]: prevented lubiprostone inhibition of cell growth
- effect of mock transfection on lubiprostone inhibition of cell growth [3]: Mock transfection had no effect
